Source: patent US9539238B2, “Pharmaceutical composition comprising a biguanide derivative as an active ingredient for preventing or treating glioblastoma” (ImmunoMet Therapeutics, Inc., priority 2015, dated 2017)
“Also recorded” adds a separate entry of the source.

What was measured:
[1] = tested on: GSC11 orthotopic xenograft; assay: Orthotopic xenograft mouse model; type: in vivo, male athymic nude mice; conditions: stained tumors
Method: Finally, the effect of the drags on the tumors of orthotopic xenograft mice was analyzed, 4- to 8-week-old male athymic nude mice (Central Lab. Animal Inc., Seoul, South Korea) were used for experiments. Mice were housed in micro-isolator cages under sterile conditions and observed for at least 1 week before study initiation to ensure proper health. Lighting, temperature, and humidity were controlled centrally. All experimental procedures were approved by Yonsei University College of Medicine Institutional Animal Care and Use Committee. Mice were anesthetized with a solution of Zoletil® (30 mg/kg; Virbac Korea, Seoul, South Korea) and xylazine (10 mg/kg; Bayer Korea, Seoul, South Korea) delivered intraperitoneally. GSC11 were implanted into the right frontal lobe of nude mice using a guide-screw system within the skull. Mice received 5×10^5 cells via a Hamilton syringe (Dongwoo Science Co., Seoul, South Korea) inserted to a depth of 4.5 mm. Then, 15 mg/kg of HL156A, 66.6 mg/kg of TMZ, and their combination were administrated to mice (n=5 per group). HL156A was given to mice by oral administration every other day until the duration of the experiment and TMZ was administrated intraperitoneally, for 5 days from the day of tumorsphere injection. The body weight of mice was checked every other day. […]

[2] = tested on: G-GSC11 spheroids; assay: 3D collagen I matrix invasion assay; type: cell-based, human
Method: The G-GSC11s grown in spheroid were cultured in collagen I matrices using polydimethylsiloxane (PDMS)-based micro-wells (diameter and depth of microwells: […] and 500 μm). The microwells were treated with a 1% poly(ethyleneimine) (Sigma-Aldrich, St. Louis, Mo., USA) solution for 10 minutes followed by 0.1% glutaraldehyde (Sigma-Aldrich, St. Louis, Mo., USA) for 30 minutes and washed with PBS overnight lo make PDMS wells adherent to collagen. The 4 mg/ml collagen I matrices are prepared from high-concentration rat tail collagen I (BD Bioscience, CA, USA) using the recommended manual provided by the manufacturer. Briefly, the amounts of 10× phosphate buffered saline (PBS), 1N NaOH, sterile dH2O, and collagen I were mixed to create gels based on the desired final concentration. The solution was well mixed and kept at 4° C. before use. To encapsulate G-GSC11 spheroid, 10 μl of a collagen I solution (4 mg/ml) were pipetted into the micro-well, single G-GSC11 spheroid was placed onto collagen I matrices from the culture plate, and 10 μl of a collagen I solution (4 mg/ml) was dropped onto G-GSC11 spheroid. The platform was incubated at 37° C. and 5% CO2 for 30 minutes. The cell viability was characterized by staining G-GSC11 spheroid with 8 μM Ethidium homodimer-1 (Invitrogen Korea, Seoul, South Korea) for 30 minutes at 37° C. before implantation in collagen matrix. After fall gelation, a superlayer of culture medium consisting of DMEM/F-12 with 2% 1×B27, 20 ng/ml 0.02% bFGF, 20 ng/ml 0.2% EGF, and 1% antibiotic-antimycotic solution (100× Gibco, Invitrogen Korea, Seoul, South Korea) was then added. To observe drug effects, drugs were mixed with medium considering the final concentration of each drug. […] To quantitate the invasion assay, the maximal area covered by migrating edges of cells was used as a parameter for defining invasiveness (invaded area at certain time/spheroid area at initial time×100). Data was analyzed through image analysis software ImageJ (NIH, Bethesda, Md., USA).

[3] = tested on: GSC11; assay: 18F-FDG uptake (cellular metabolism); type: cell-based, human; conditions: 15 minutes incubation, radioactivity normalized to protein content
Method: In order to assess the effect of drugs on the cellular metabolism, ^18F-FDG uptake was examined, GSC11 were plated on 12-well plates with 3×10^5 cells per well for 24 hours. The medium was changed to a glucose-free DMEM medium (Gibco, Invitrogen Korea, Seoul, South Korea) containing approximately 0.5 μCi of ^18F-FDG, followed by incubation for 15 minutes. The cells were washed with phosphate-buffered saline 3 times and 0.1 ml of lysis buffer was added to each well. The lysed cells were then harvested to measure the amount of radioactivity by Wallac 148 Wizard 3 gamma-counter (PerkinElmer Life and, Analytical Science, Shelton, Conn., USA). The radioactivity measured was normalized to protein content.

[4] = tested on: AMPK and mTOR pathway of GSC11 and X01 cells; assay: Western blotting of AMPK-mTOR pathway-related proteins; type: cell-based, human
Method: (§1) For Western blotting, 20 μg total protein from each sample was treated with Laemmli sample buffer and heated at 100° C. for 5 minutes. This was then loaded into each well and was resolved by 8% SDS-polyacrylamide gel electrophoresis (PAGE) and eleetroblotted onto nitrocellulose membranes (GE Healthcare life-Sciences). Membranes were blocked in 5% non-fat dry milk in TBS-T, and incubated with antibodies for AMPK-mTOR pathway-related proteins, stemness markers, and EMT-related markers overnight at 4° C., and then probed with peroxidase-conjugated goat anti-rabbit IgG (1:2000, santa cruz) for 1 hour at room temperature. The washes were repeated and the membrane was developed with a chemiluminescent agent (ECL; Amersham Life Science, Inc.). Band densities were measured using TINA image software (Raytest, Straubenhardt, Germany).

[5] = tested on: stem cell; assay: MTT cell viability assay; type: cell-based; conditions: treated for 5 days, sublethal dose
Method: The effect of HL156A, TMZ, and combined HL156A and temozolomide on the survival of cells was determined by 3-(4,5-dimethylthiazol-2-yl)-2,5-diphenyl tetrazolium bromide (MTT) assay. Cells were seeded in 96-well plates and incubated at 37° C. for 24 hours and treated with HL156A, TMZ, and the combination thereof for 5 days. MTT reagent (10 μl/well) was added, incubated at 37° C. for 4 hours and the absorbance was measured at 490 nm. Each experiment was repeated three times and the results were expressed as % viable cells over control.

[6] = tested on: GSC11 and X01 cells; assay: Neurosphere formation assay; type: cell-based, human; conditions: GSC11 and X01, cultured for 3 weeks
Method: For Neurosphere formation assay, the GSC11 and X01 cells were cultured in medium consisting of DMEM/F-12 with 2% 1×B27, 20 ng/ml 0.02% bFGF, 20 ng/ml 0.02% EGF, and 1% antibiotic-antimycotic solution (100×, Gibco, Invitrogen Korea, Seoul, South Korea). The cells were cultured in different conditions for 3 weeks. […] Photographs of cells were obtained with a digital camera (DP70 Digital Microscope Camera; Olympus), using DP Controller software (Olympus).

[7] = tested on: stemness markers such as nestin, CD133, Sox-2, Notch 1, Notch 2, and Oct3/4 in GSC11 or X01; assay: Western blotting of stemness markers; type: cell-based, human
Method: as §1

[8] = tested on: GSC11 and X01; assay: Neuro-glial differentiation (neuronal marker expression); type: cell-based, human
[9] = tested on: EMT-related markers such as β-catenin, zeb1, N-cadherin, and snail; assay: Western blotting of EMT-related markers; type: cell-based, human; conditions: tumorspheres
Method: as §1

How did the “tumor margin versus control” value [1] turn out when `N=C(NC(=N)N1CCCC1)Nc1ccc(OC(F)(F)F)cc1` [HL156A, N—(N-(4-(trifluoromethoxy)phenyl)carbamimidoyl)pyrrolidine-1-carboximidamide] was run?
The value was “less irregular margin”.

And the “cell viability during the invasion experiment” value [2]?
The value was “no significant cell death”.

What about the invasiveness ([2]; implanted cells and drugs together (FIG. 3A)) of the same compound?
Its invasiveness is “decreased invasiveness; also recorded: lesser degree of invasiveness”.

What about the invasiveness ([2]; pre-implanted, drug treatment 12 hours after implantation (FIG. 3B)) of the same compound?
The invasiveness was “decreased invasiveness”.

What about the 18F-FDG uptake [3] of the same compound?
The 18F-FDG uptake was “markedly decreased”.

And the “AMPK activation and consequent mTOR inhibition” value [4]?
Its value is “did not show expected AMPK activation”.

And the “cell viability (% viable cells over control)” value [5]?
The value was “minimal effect”.

And the number of neurospheres [6]?
Its number of neurospheres is “markedly decreased”.

And the “expression of stemness markers (CD133, OCT 3/4, Sox-2, Notch 1, Notch 2)” value [7]?
The value was “Decreased expression”.

What about the “neuro-glial differentiation (expression of olig2, Tuj1, GFAP)” value [8] of the same compound?
Its value is “did not promote”.

And the “expression of β-catenin, zeb1, and N-cadherin (EMT-related markers)” value [9]?
The value was “altered; also recorded: diminished”.
